Source: US10040781B2, “Tank-binding kinase inhibitor compounds” (Gilead Sciences, Inc., priority 2014, dated 2018)

Experiments:
hJAK2 = hJAK2 (Homo sapiens (Human), UniProt O60674); experiment: hJAK2 LANCE TR-FRET enzymatic assay; assay type: biochemical; conditions: read-out: JAK2 IC50
TBK1 = TBK1 (Homo sapiens (Human), UniProt Q9UHD2); experiment: TBK1 TR-FRET enzymatic assay;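 further: phosphorylation of a biotinylated Ser/Thr peptide by purified full-length recombinant TBK1, read by TR-FRET after 240 min at 25 °C, IC50 is the geometric mean of at least four runs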
IKKε = IKKε (Homo sapiens (Human), UniProt Q14164); experiment: IKKε TR-FRET enzymatic assay; assay type: biochemical; conditions: TR-FRET, 2×Km ATP; geometric mean of minimum four determinations; read-out: IKKe IC50
IKKε, sequence (Q14164 whole entry): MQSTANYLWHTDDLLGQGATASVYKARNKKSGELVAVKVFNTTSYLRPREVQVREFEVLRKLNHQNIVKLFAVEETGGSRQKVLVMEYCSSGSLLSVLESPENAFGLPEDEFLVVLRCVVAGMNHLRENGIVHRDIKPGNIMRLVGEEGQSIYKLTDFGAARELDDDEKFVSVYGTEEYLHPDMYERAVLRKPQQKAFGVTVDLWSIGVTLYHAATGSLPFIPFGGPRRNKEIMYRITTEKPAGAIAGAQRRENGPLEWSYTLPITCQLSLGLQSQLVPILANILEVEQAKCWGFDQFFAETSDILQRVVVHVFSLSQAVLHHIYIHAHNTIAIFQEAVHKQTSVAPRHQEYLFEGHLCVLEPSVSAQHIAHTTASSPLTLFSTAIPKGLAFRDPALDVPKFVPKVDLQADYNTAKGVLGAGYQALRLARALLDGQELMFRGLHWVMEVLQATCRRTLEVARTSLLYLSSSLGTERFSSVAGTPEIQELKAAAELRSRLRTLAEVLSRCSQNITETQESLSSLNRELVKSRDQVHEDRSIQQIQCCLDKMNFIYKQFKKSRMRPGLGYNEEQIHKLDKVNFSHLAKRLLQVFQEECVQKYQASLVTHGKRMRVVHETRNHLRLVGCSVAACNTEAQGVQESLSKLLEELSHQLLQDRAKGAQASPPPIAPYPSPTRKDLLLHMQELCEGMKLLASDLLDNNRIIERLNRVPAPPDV

hJAK2, sequence (O60674 whole entry): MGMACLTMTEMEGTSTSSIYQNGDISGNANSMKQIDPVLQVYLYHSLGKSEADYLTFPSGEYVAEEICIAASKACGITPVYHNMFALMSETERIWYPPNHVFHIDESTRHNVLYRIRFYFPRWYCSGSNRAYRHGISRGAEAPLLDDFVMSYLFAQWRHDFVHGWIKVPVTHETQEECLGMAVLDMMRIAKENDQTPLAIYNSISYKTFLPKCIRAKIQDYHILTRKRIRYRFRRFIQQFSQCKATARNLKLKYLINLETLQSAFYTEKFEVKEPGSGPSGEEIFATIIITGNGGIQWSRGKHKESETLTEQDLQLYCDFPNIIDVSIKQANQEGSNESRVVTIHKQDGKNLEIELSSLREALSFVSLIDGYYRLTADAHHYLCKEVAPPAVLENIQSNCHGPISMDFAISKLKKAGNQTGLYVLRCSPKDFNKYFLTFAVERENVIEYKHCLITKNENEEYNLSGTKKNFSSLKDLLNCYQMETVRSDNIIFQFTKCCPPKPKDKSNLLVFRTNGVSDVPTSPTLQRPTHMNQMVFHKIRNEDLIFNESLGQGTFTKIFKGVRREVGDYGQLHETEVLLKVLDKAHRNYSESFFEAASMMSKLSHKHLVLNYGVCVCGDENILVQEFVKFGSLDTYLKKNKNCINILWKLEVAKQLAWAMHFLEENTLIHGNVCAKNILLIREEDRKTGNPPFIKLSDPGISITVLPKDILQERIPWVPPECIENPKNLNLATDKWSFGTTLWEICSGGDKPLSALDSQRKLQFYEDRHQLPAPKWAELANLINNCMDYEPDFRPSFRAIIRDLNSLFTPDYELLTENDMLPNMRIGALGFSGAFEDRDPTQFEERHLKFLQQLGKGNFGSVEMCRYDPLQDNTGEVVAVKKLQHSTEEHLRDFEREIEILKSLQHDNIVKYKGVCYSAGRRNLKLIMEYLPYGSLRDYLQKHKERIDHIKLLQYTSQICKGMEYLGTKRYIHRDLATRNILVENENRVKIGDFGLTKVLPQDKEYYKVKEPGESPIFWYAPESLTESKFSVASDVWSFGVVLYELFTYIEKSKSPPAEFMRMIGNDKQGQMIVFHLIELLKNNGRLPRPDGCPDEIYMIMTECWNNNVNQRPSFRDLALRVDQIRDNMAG
TBK1, sequence (Q9UHD2 whole entry): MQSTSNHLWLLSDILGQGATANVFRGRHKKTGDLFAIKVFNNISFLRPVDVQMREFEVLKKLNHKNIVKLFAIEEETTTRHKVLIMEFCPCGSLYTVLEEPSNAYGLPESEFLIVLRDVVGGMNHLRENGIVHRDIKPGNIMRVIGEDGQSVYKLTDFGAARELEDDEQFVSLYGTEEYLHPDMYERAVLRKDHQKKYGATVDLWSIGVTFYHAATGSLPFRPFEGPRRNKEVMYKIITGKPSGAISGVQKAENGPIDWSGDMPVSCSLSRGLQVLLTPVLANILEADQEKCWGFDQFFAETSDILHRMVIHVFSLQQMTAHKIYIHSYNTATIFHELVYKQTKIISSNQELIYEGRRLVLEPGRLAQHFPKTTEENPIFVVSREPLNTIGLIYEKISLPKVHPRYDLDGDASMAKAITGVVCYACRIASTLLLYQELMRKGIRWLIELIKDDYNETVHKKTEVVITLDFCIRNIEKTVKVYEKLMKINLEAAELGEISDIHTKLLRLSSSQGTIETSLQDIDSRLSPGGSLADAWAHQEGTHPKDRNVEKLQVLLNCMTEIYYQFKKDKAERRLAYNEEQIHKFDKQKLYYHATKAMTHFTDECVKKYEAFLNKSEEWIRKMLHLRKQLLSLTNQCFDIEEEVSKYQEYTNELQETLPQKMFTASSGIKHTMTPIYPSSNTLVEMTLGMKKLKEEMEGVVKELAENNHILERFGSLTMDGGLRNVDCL

| SMILES | IC50 (hJAK2) | IC50 (TBK1) | IC50 (IKKε) |
| --- | --- | --- | --- |
| N#Cc1cc(-c2ncnc(Nc3ccc(C4CCN(C5COC5)CC4)cc3)n2)ccc1O[C@H]1CCN(C(=O)[C@@H](O)CO)C[C@H]1F [Example 509, 2-(((3R,4S)-1-((S)-2,3-dihydroxypropanoyl)-3-fluoropiperidin-4-yl)oxy)-5-(4-((4-(1-(oxetan-3-yl)piperidin-4-yl)phenyl)amino)-1,3,5-triazin-2-yl)benzonitrile] | 699 nM | 3 nM | 1 nM |
| N#Cc1cc(-c2ncnc(Nc3ccc(N4CCN(C5COC5)CC4)nc3)n2)ccc1O[C@H]1CCN(C(=O)[C@@H](O)CO)C[C@H]1F [Example 510, 2-(((3R,4S)-1-((S)-2,3-dihydroxypropanoyl)-3-fluoropiperidin-4-yl)oxy)-5-(4-((6-(4-(oxetan-3-yl)piperazin-1-yl)pyridin-3-yl)amino)-1,3,5-triazin-2-yl)benzonitrile] | ≥ 1000 nM | 4 nM | 2 nM |
| COc1cc(Nc2ncnc(-c3ccc(O[C@H]4CCN(C(=O)[C@@H](O)CO)C[C@H]4F)c(C#N)c3)n2)cnc1N1CCN(C2COC2)CC1 [Example 511, 2-(((3R,4S)-1-((S)-2,3-dihydroxypropanoyl)-3-fluoropiperidin-4-yl)oxy)-5-(4-((5-methoxy-6-(4-(oxetan-3-yl)piperazin-1-yl)pyridin-3-yl)amino)-1,3,5-triazin-2-yl)benzonitrile] | ≥ 1000 nM | 4 nM | 2 nM |
| CC(C)(O)Cn1cc(Nc2ncnc(-c3ccc(O[C@H]4CCN(C(=O)[C@@H](O)CO)C[C@H]4F)c(C#N)c3)n2)cn1 [Example 512, 2-(((3R,4S)-1-((S)-2,3-dihydroxypropanoyl)-3-fluoropiperidin-4-yl)oxy)-5-(4-((1-(2-hydroxy-2-methylpropyl)-1H-pyrazol-4-yl)amino)-1,3,5-triazin-2-yl)benzonitrile] | ≥ 1000 nM | 2 nM | 2 nM |
| Cc1cc(Nc2ncnc(-c3ccc(O[C@H]4CCN(C(=O)[C@@H](O)CO)C[C@H]4F)c(C#N)c3)n2)cnc1N1CCN(C2COC2)CC1 [Example 513, 2-(((3R,4S)-1-((S)-2,3-dihydroxypropanoyl)-3-fluoropiperidin-4-yl)oxy)-5-(4-((5-methyl-6-(4-(oxetan-3-yl)piperazin-1-yl)pyridin-3-yl)amino)-1,3,5-triazin-2-yl)benzonitrile] | 517 nM | 2 nM | 1 nM |
| C[C@H](O)C(=O)N1CC[C@H](Oc2ccc(-c3ncnc(Nc4cnc5c(c4)OCCN5)n3)cc2C#N)[C@H](F)C1 [Example 516, 5-(4-((3,4-dihydro-2H-pyrido[3,2-b][1,4]oxazin-7-yl)amino)-1,3,5-triazin-2-yl)-2-(((3R,4S)-3-fluoro-1-((S)-2-hydroxypropanoyl)piperidin-4-yl)oxy)benzonitrile] | ≥ 1000 nM | 6 nM | 10 nM |
| C[C@H](O)C(=O)N1CC[C@H](Oc2ccc(-c3ncnc(Nc4ccc5c(c4)NCCO5)n3)cc2C#N)[C@H](F)C1 [Example 517, 5-(4-((3,4-dihydro-2H-benzo[b][1,4]oxazin-6-yl)amino)-1,3,5-triazin-2-yl)-2-(((3R,4S)-3-fluoro-1-((S)-2-hydroxypropanoyl)piperidin-4-yl)oxy)benzonitrile] | 828 nM | 2 nM | 1 nM |
| Cc1cc(-c2ncnc(Nc3ccc(N4CCN(C5COC5)CC4)cc3)n2)cc(C#N)c1O[C@H]1CCN(C(=O)[C@H](C)O)C[C@H]1F [Example 521, 2-(((3R,4S)-3-fluoro-1-((S)-2-hydroxypropanoyl)piperidin-4-yl)oxy)-3-methyl-5-(4-((4-(4-(oxetan-3-yl)piperazin-1-yl)phenyl)amino)-1,3,5-triazin-2-yl)benzonitrile] | ≥ 1000 nM | 16 nM | 39 nM |
| Cc1cc(-c2ncnc(Nc3ccc(N4CCN(C5COC5)CC4)cc3)n2)cc(C#N)c1O[C@H]1CCN(C(=O)CO)C[C@H]1F [Example 522, 2-(((3R,4S)-3-fluoro-1-(2-hydroxyacetyl)piperidin-4-yl)oxy)-3-methyl-5-(4-((4-(4-(oxetan-3-yl)piperazin-1-yl)phenyl)amino)-1,3,5-triazin-2-yl)benzonitrile] | ≥ 1000 nM | 14 nM | 28 nM |
| C[C@@H]1OC(=O)N[C@@H]1C(=O)N1CC[C@H](Oc2ccc(-c3ncnc(Nc4ccc(N5CCN(C6COC6)CC5)cc4)n3)cc2C#N)[C@H](F)C1 [Example 524, 2-(((3R,4S)-3-fluoro-1-((4S,5S)-5-methyl-2-oxooxazolidine-4-carbonyl)piperidin-4-yl)oxy)-5-(4-((4-(4-(oxetan-3-yl)piperazin-1-yl)phenyl)amino)-1,3,5-triazin-2-yl)benzonitrile] | 959 nM | 7 nM | 29 nM |
| C[C@H]1CN(c2ccc(Nc3ncnc(-c4ccc(O[C@H]5CCN(C(=O)[C@@H]6CCC(=O)N6)C[C@H]5F)c(C#N)c4)n3)cc2)CCN1C1COC1 [Example 535, 2-(((3R,4S)-3-fluoro-1-((S)-5-oxopyrrolidine-2-carbonyl)piperidin-4-yl)oxy)-5-(4-((4-((S)-3-methyl-4-(oxetan-3-yl)piperazin-1-yl)phenyl)amino)-1,3,5-triazin-2-yl)benzonitrile] | 904 nM | 3 nM | 3 nM |

These reach a lower IC50 (hJAK2). Values come first.

| IC50 (hJAK2) | IC50 (TBK1) | IC50 (IKKε) | SMILES |
| --- | --- | --- | --- |
| 184 nM | 2 nM | 1 nM | N#Cc1cc(-c2ncnc(Nc3ccc(N4CCN(C5COC5)CC4)cc3)n2)ccc1O[C@H]1CCN(C(=O)[C@@H]2COC(=O)N2)CC1(F)F [Example 519, 2-(((S)-3,3-difluoro-1-((S)-2-oxooxazolidine-4-carbonyl)piperidin-4-yl)oxy)-5-(4-((4-(4-(oxetan-3-yl)piperazin-1-yl)phenyl)amino)-1,3,5-triazin-2-yl)benzonitrile] |
| 177 nM | 2 nM | 1 nM | N#Cc1cc(-c2ncnc(Nc3ccc(N4CCN(C5COC5)CC4)cc3)n2)ccc1O[C@H]1CCN(C(=O)[C@@H]2CSC(=O)N2)CC1(F)F [Example 520, 2-(((S)-3,3-difluoro-1-((R)-2-oxothiazolidine-4-carbonyl)piperidin-4-yl)oxy)-5-(4-((4-(4-(oxetan-3-yl)piperazin-1-yl)phenyl)amino)-1,3,5-triazin-2-yl)benzonitrile] |
| 390 nM | 3 nM | 3 nM | N#Cc1cc(-c2ncnc(Nc3ccc(N4CCN(C5COC5)CC4)cc3)n2)ccc1O[C@H]1CCN(C(=O)c2coc(=O)[nH]2)C[C@H]1F [Example 525, 2-(((3R,4S)-3-fluoro-1-(2-oxo-2,3-dihydrooxazole-4-carbonyl)piperidin-4-yl)oxy)-5-(4-((4-(4-(oxetan-3-yl)piperazin-1-yl)phenyl)amino)-1,3,5-triazin-2-yl)benzonitrile] |
| 447 nM | 9 nM | 19 nM | Cc1n[nH]c(C(=O)N2CC[C@H](Oc3ccc(-c4ncnc(Nc5ccc(N6CCN(C7COC7)CC6)cc5)n4)cc3C#N)[C@H](F)C2)c1C [Example 526, 2-(((3R,4S)-1-(3,4-dimethyl-1H-pyrazole-5-carbonyl)-3-fluoropiperidin-4-yl)oxy)-5-(4-((4-(4-(oxetan-3-yl)piperazin-1-yl)phenyl)amino)-1,3,5-triazin-2-yl)benzonitrile] |
| 323 nM | 5 nM | 8 nM | Cc1c[nH]c(C(=O)N2CC[C@H](Oc3ccc(-c4ncnc(Nc5ccc(N6CCN(C7COC7)CC6)cc5)n4)cc3C#N)[C@H](F)C2)n1 [Example 527, 2-(((3R,4S)-3-fluoro-1-(4-methyl-1H-imidazole-2-carbonyl)piperidin-4-yl)oxy)-5-(4-((4-(4-(oxetan-3-yl)piperazin-1-yl)phenyl)amino)-1,3,5-triazin-2-yl)benzonitrile] |
| 368 nM | 8 nM | 20 nM | Cc1cn[nH]c1C(=O)N1CC[C@H](Oc2ccc(-c3ncnc(Nc4ccc(N5CCN(C6COC6)CC5)cc4)n3)cc2C#N)[C@H](F)C1 [Example 528, 2-(((3R,4S)-3-fluoro-1-(4-methyl-1H-pyrazole-5-carbonyl)piperidin-4-yl)oxy)-5-(4-((4-(4-(oxetan-3-yl)piperazin-1-yl)phenyl)amino)-1,3,5-triazin-2-yl)benzonitrile] |
| 356 nM | 3 nM | 4 nM | N#Cc1cc(-c2ncnc(Nc3ccc(N4CCN(C5COC5)CC4)cc3)n2)ccc1O[C@H]1CCN(C(=O)[C@@H]2CC(=O)N2)C[C@H]1F [Example 529, 2-(((3R,4S)-3-fluoro-1-((S)-4-oxoazetidine-2-carbonyl)piperidin-4-yl)oxy)-5-(4-((4-(4-(oxetan-3-yl)piperazin-1-yl)phenyl)amino)-1,3,5-triazin-2-yl)benzonitrile] |
| 55 nM | 4 nM | 3 nM | COc1cc(Nc2ncnc(-c3ccc(O[C@@H]4CCC(=O)NC4)c(C#N)c3)n2)ccc1N1CCN(C2COC2)CC1 [Example 531, (R)-5-(4-((3-methoxy-4-(4-(oxetan-3-yl)piperazin-1-yl)phenyl)amino)-1,3,5-triazin-2-yl)-2-((6-oxopiperidin-3-yl)oxy)benzonitrile] |
| 88 nM | 4 nM | 7 nM | Cc1cc(Nc2ncnc(-c3ccc(O[C@H]4CCN(C(=O)CCO)C[C@H]4F)c(C#N)c3)n2)ccc1N1CCN(C2COC2)CC1 [Example 533, 2-(((3R,4S)-3-fluoro-1-(3-hydroxypropanoyl)piperidin-4-yl)oxy)-5-(4-((3-methyl-4-(4-(oxetan-3-yl)piperazin-1-yl)phenyl)amino)-1,3,5-triazin-2-yl)benzonitrile] |
| 32 nM | 4 nM | 7 nM | Cc1cc(Nc2ncnc(-c3ccc(N4C[C@H](O)C[C@@H]4C)c(C#N)c3)n2)ccc1N1CCN(C2COC2)CC1 [Example 534, 2-((2S,4R)-4-hydroxy-2-methylpyrrolidin-1-yl)-5-(4-((3-methyl-4-(4-(oxetan-3-yl)piperazin-1-yl)phenyl)amino)-1,3,5-triazin-2-yl)benzonitrile] |
